Several values for one entry are separate records, joined by “and”; a condition that tells them apart may be missing. Equal values may be shown once. Entries after “also recorded” stand apart in the source; their conditions may differ. Read-outs that look alike come from different tables or passages of the source.
What was measured:
[1] = Physicochemical properties extracted from databases
From the text: Triptans are a relatively homogeneous group of drug compounds with similar physicochemical properties, including molecular weights < 400 g/mol and a low to moderate lipophilicity (cLogD values ranging from − 2.1–0.18). […] As a consequence, it is unlikely that triptans cross the brain microvascular endothelium through passive diffusion to a clinically relevant extent. Table 1 summarizes structures and physicochemical properties of the triptans, as well as oxycodone and pyrilamine, which are two prototypical H^+/OC antiporter substrates included in this study.

[2] = test system: H^+/OC antiporter; assay: Concentration-dependent cellular uptake into hCMEC/D3 cells (Michaelis-Menten kinetics); assay type: cell-based, human; settings: for Concentration-dependent uptake (saturability): hCMEC/D3 cells, tested concentration range; for Association with H^+/OC antiporter: summary of uptake and inhibition studies in hCMEC/D3 cells; for Apparent Km / Jmax / Km: uptake into hCMEC/D3 cells; for Km: read-out: Apparent Km
Method: (§1) The immortalized human cerebral microvascular endothelial cell line (hCMEC/D3) was maintained in T75-flasks coated with collagen type I from calf skin (C9791, 18.7 μg/mL) and cultured in EBM®-2 medium (Lonza, Basel, Schweiz) supplemented with 5% (v/v) fetal bovine serum (FBS, 10270, Life Technologies, CA, USA or SH3008803, ThermoFisher Scientific, MA, USA), 100 U/mL penicillin and 100 μg/ml streptomycin, 1 ng/mL human basic fibroblast growth factor (bFGF), 1.4 μM hydrocortisone, 1% (v/v) chemically defined lipid concentrate (ThermoFisher Scientific, MA, USA), 10 mM N-2-hydroxyethylpiperazine-N-2-ethane sulfonic acid (HEPES) and 5 μg/mL ascorbic acid (5% CO2, 37 °C). […] For experiments, cells were seeded into 24-well plates (6.7·10^4 cells/cm^2) and cultured for four continuous days. The cells were used for experiments between passage 3–31.
(§2) The cells were equilibrated in hHBSS with or without inhibitor for 15 min (37 °C, 90 rpm). The compound of interest was spiked into the hHBSS followed by incubation for a designated time. The timeframe of the initial uptake rate was validated into hCMEC/D3 cells (Fig. 1 and Additional file 1). The experiment was terminated by washing three times with ice-cold HBSS supplemented with 0.0375% (v/v) sodium bicarbonate.
To assess the concentration-dependent uptake, the uptake flux was fitted to the Michaelis–Menten equation, Eq. 1.1 Jss=Jmax[S]/Km+[S] where Jss represents flux under steady state, Jmax is the maximal flux, [S] is the substrate concentration, and Km is the Michaelis–Menten constant.
The hCMEC/D3 cells were used for concentration-dependent uptake studies between passage 21–23 (pyrilamine), 11–13 (oxycodone), 12–14 (almotriptan), 16–18 (eletriptan), and 12–14 (sumatriptan).
(§3) The cells were permeabilized using 50% (v/v) acetonitrile (HPLC LC–MS grade, VWR International S.A.S, Soeborg, Denmark) in ultrapure water (ELGA, Buckinghamshire, England) for 10 min at room temperature. Thereafter, the cells were scraped off the bottom of the wells and transferred to HPLC vials. Samples from bidirectional transport experiments were transferred directly into HPLC vials. All samples were stored at – 18 °C for later analysis. Calibration curves with standards in the range of 1 or 5–1000 ng/mL were dissolved in 50% (v/v) acetonitrile in ultrapure water (ELGA, Buckinghamshire, England), or in hHBSS(-) for analysis of bidirectional transport samples.
(§4) Liquid chromatography tandem mass spectrometry (LC–MS/MS) were performed using electrospray ionization in positive mode on a micromass Quattro micro™ API tandem quadrupole mass spectrometer (Waters, MA, USA) or an Ultivo triple quadrupole mass spectrometer (Agilent Technologies, CA, USA) coupled to Agilent HPLC system 1100 Series or 1260 Series (Agilent Technologies, CA, USA California), respectively. Applied columns were an InfinityLab Poroshell 120 EC-C18 (3.0 × 50 mm; 2.7 micron, Agilent Technologies, CA, USA) or a Kinetex 2.6 μm XB-C18 (100 Å, 100 × 4.6 mm, Phenomenex Inc., CA, USA). An overview of applied HPLC and MS/MS parameters can be found in Additional file 2 and Additional file 3, respectively. The data acquisition software was MassLynx (V4.1, Waters, MA, USA).
The protein content of hCMEC/D3 cells was determined for normalization purposes. Cells were washed with ice-cold phosphate buffered saline following cell lysis in cell extraction buffer (FNN0011, Thermo Fisher Scientific, MA, USA) supplemented with 1 × cOmplete™ Protease Inhibitor Cocktail (04693116001, Roche, Basel, Schweiz), 1 mM phenylmethylsulfonyl fluoride, and […] for 30 min on ice.

[3] = test system: H^+/OC antiporter; assay: Inhibition of [^3H]-pyrilamine uptake into hCMEC/D3 cells; assay type: cell-based, human
Method: as §1, §2
The inhibitory constant at 50% inhibition (IC50) was determined by fitting the uptake flux (Jss) as function of the logarithmic inhibitor concentration to Eq. 2.2 Jss=Jmin+(Jmax-Jmin)/1+10^logIC50-InH where [I] is the inhibitor concentration, nH is the Hill coefficient.
The hCMEC/D3 cells were used for [^3H]-pyrilamine inhibition studies between passage 3–6 (pyrilamine, oxycodone), 16–18 (almotriptan), 7–13 (eletriptan), 25–27 (frovatriptan), 3–8 (naratriptan), 16–18 (rizatriptan), 12–14 (sumatriptan), and 14–16 (zolmitriptan).
The cells were permeabilized using 0.1% (v/v) Triton X-100 in ultrapure water (ELGA, Buckinghamshire, England) for 10 min at room temperature. Thereafter, the cells were scraped off the bottom of the wells, transferred to scintillation vials, and mixed with 2 mL of Ultima Gold 241 TM (Perkin Elmer, MA, USA). The samples were analyzed using a Tri-Carb 2910 TR Liquid Scintillation Analyzer (Perkin Elmer, MA, USA).

[4] = test system: H^+/OC antiporter; assay: Cellular uptake into hCMEC/D3 cells in absence or presence of pyrilamine or oxycodone; assay type: cell-based, human; settings: for Inhibition by oxycodone (of the compound's uptake) / Inhibition by pyrilamine (of the compound's uptake): triptan 50 µM, asterisks = P level; for Inhibition by oxycodone (of the compound's uptake): 500 µM oxycodone; for Inhibition by pyrilamine (of the compound's uptake): 500 µM pyrilamine
Method: as §2
The hCMEC/D3 cells were used for time-dependent uptake studies between passage 3–5 (pyrilamine), 7–9 (oxycodone), 6–8 (almotriptan), and 24–31 (eletriptan).
The hCMEC/D3 cells were used for uptake studies of almotriptan, eletriptan, and sumatriptan in the presence of pyrilamine and oxycodone between passage 21–23.
as §3, §4

[5] = test system: H^+/OC antiporter; assay: Cellular uptake into hCMEC/D3 cells after intra- and extracellular pH manipulation; assay type: cell-based, human; settings: for Cellular uptake after intracellular alkalization: acute exposure to 30 mM NH4Cl vs control pH 7.4; for Cellular uptake at extracellular acidification: extracellular pH 6.8 vs pH 7.4; for Cellular uptake at extracellular alkalization: extracellular pH 8.2 vs pH 7.4; for Proton-gradient dependence of uptake: hCMEC/D3 cells; for Cellular uptake after intracellular acidification: preexposure to 30 mM NH4Cl followed by media change vs control
[6] = test system: H^+/OC antiporter; design: method as in PMID 35955563; settings: trans-stimulation in hCMEC/D3 cells; cited from earlier work
[7] = test system: organic cation transporter 1 (OCT1); design: method as in PMID 35955563; settings: cited from earlier work
[8] = cited from earlier work; for Strongest basic pKa: extracted from DrugBank
[9] = test system: P-gp; design: method as in PMID 12814962; settings: brain Kp in wild type and mdr1a knockout mice; cited from earlier work
[10] = biological target: P-gp (Homo sapiens, UniProt P08183); design: expressed in transfected cells; host or cells: IPEC-J2 (porcine ileum epithelial cell line); method as in PMID 12438524; settings: MDR1-MDCKII cell line; cited from earlier work
Sequence of P-gp (Homo sapiens, UniProt P08183) (P08183 whole entry): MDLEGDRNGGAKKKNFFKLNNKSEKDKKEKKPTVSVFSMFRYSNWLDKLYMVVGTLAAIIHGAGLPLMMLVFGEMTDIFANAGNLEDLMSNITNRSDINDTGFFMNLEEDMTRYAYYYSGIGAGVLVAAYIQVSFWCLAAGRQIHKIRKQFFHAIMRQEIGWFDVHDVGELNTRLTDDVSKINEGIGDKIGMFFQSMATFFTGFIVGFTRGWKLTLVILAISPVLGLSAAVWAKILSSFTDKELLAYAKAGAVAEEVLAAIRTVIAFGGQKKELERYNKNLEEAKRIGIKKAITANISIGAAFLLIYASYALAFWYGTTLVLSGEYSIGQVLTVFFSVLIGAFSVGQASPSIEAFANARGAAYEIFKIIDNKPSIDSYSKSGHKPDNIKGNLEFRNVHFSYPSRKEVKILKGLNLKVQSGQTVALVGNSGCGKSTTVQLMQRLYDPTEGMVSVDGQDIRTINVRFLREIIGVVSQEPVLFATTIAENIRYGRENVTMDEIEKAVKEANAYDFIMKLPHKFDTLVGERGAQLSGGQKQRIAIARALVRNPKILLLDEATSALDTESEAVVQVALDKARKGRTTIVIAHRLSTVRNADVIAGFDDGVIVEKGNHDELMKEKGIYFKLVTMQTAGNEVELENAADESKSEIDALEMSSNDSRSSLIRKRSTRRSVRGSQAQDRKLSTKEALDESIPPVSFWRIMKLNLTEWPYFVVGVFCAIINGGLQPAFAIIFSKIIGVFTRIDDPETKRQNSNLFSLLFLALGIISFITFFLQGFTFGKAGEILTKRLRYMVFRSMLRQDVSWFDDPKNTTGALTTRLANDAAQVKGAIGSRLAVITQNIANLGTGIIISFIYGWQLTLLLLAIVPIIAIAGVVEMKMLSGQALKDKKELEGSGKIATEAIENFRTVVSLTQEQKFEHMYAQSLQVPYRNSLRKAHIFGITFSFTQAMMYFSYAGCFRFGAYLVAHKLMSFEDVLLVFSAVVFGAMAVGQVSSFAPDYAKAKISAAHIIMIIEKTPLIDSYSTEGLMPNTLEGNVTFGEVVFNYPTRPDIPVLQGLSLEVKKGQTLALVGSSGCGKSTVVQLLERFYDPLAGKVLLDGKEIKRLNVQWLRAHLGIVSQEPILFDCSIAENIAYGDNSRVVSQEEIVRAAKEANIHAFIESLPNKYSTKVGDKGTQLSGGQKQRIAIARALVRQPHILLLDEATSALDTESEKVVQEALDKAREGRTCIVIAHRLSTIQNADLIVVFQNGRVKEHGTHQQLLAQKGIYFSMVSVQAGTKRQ

[11] = read-out: Apparent IC50 on [^3H]-pyrilamine uptake, [^3H]-pyrilamine 1 µCi/mL, 48 nM
[12] = [^3H]-pyrilamine 1 µCi/mL, 48 nM, read-out: Apparent IC50 on [^3H]-pyrilamine uptake

SMILES: CNS(=O)(=O)Cc1ccc2[nH]cc(CCN(C)C)c2c1 [Sumatriptan]
- Overall charge pH 7.4 [1]: Positive
- Concentration-dependent uptake (saturability) [2]: linear increase as function of increasing concentrations
- Association with H^+/OC antiporter [2]: (substrate) very poor inhibitor
- Apparent Km [2]: not saturable (in tested range)
- IC50 [3, 11]: 1460 ± 189 µM
- Inhibition by oxycodone (of the compound's uptake) [4]: yes (***)
- Inhibition by oxycodone (of the compound's uptake) ([4]; listed as sumatriptan): inhibited the uptake of sumatriptan
- Inhibition by pyrilamine (of the compound's uptake) [4]: yes (**)
- Inhibition by pyrilamine (of the compound's uptake) ([4]; listed as sumatriptan): inhibited the uptake of sumatriptan
- Cellular uptake after intracellular alkalization [5]: decreased
- Cellular uptake at extracellular acidification [5]: reduced
- Cellular uptake at extracellular alkalization [5]: increased
- Proton-gradient dependence of uptake [5]: yes
- Cellular uptake after intracellular acidification [5]: decreased uptake

SMILES: CN[C@@H]1CCc2[nH]c3ccc(C(N)=O)cc3c2C1 [Frovatriptan]
- Overall charge pH 7.4 [1]: Positive
- Apparent IC50 on [^3H]-pyrilamine uptake ([3]; [^3H]-pyrilamine 1 µCi/mL, 48 nM): did not exhibit sufficient inhibition
- H^+/OC antiporter substrate [6]: did not appear to be H^+/OC antiporter substrate candidates
- OCT1 substrate [7]: substrates of OCT1
- cLogD pH 7.4 [8]: − 1.5

SMILES: CN(C)CCc1c[nH]c2ccc(CS(=O)(=O)N3CCCC3)cc12 [Almotriptan]
- Overall charge pH 7.4 [1]: Positive
- Concentration-dependent uptake (saturability) [2]: did not show saturable uptake
- Association with H^+/OC antiporter [2]: (substrate) decent inhibitor
- Apparent Km [2]: not saturable (in tested range)
- IC50 [3, 12]: ~305 µM and 305 µM
- Inhibition by oxycodone (of the compound's uptake) [4]: no
- Inhibition by oxycodone (of the compound's uptake) ([4]; listed as almotriptan): did not inhibit
- Inhibition by pyrilamine (of the compound's uptake) [4]: slightly inhibited; also recorded: yes (*)
- Cellular uptake after intracellular alkalization [5]: decreased
- Cellular uptake at extracellular acidification [5]: reduced
- Cellular uptake at extracellular alkalization [5]: increased
- Proton-gradient dependence of uptake [5]: yes
- Cellular uptake after intracellular acidification [5]: statistically significant increase
- Strongest basic pKa [8]: 9.6
- cLogD pH 7.4 ([8]; extracted from ChemSpider): 0.3

SMILES: CN(C)CCc1c[nH]c2ccc(Cn3cncn3)cc12 [Rizatriptan]
- Overall charge pH 7.4 [1]: Positive
- IC50 [3, 12]: 719 ± 243 µM
- P-gp substrate [9]: substrates of P-gp
- cLogD pH 7.4 [8]: 0.04

SMILES: CN(C)CCc1c[nH]c2ccc(C[C@H]3COC(=O)N3)cc12 [Zolmitriptan]
- Overall charge pH 7.4 [1]: Positive
- IC50 [3, 12]: 1730 ± 1210 µM
- H^+/OC antiporter substrate [6]: did not appear to be H^+/OC antiporter substrate candidates
- OCT1 substrate [7]: substrates of OCT1
- cLogD pH 7.4 ([8]; extracted from ChemSpider): 0.4
- ER [10]: 2.48

SMILES: COc1ccc(CN(CCN(C)C)c2ccccn2)cc1 [Pyrilamine]
- Overall charge pH 7.4 [1]: Positive
- Jmax [2]: 5.1 ± 0.7 nmol·min^−1·mg protein^−1
- Km ([2]; listed as pyrilamine): ~93 µM
- Km [2]: 93 ± 17 µM
- IC50 ([3]; [^3H]-pyrilamine 1 µCi/mL, 48 nM, listed as pyrilamine, read-out: Apparent IC50 on [^3H]-pyrilamine uptake): ~11 µM
- IC50 [3, 12]: 11 ± 6 µM
- Time-dependent uptake in presence of 500 µM oxycodone ([4]; [^3H]-pyrilamine 48 nM): reduced
- Cellular uptake after intracellular alkalization [5]: reduced cellular uptake
- Cellular uptake at extracellular acidification [5]: reduced cellular uptake
- Cellular uptake at extracellular alkalization [5]: increased cellular uptake
- Cellular uptake after intracellular acidification [5]: increased cellular uptake
- cLogD pH 7.4 [8]: 1.1

SMILES: CNS(=O)(=O)CCc1ccc2[nH]cc(C3CCN(C)CC3)c2c1 [Naratriptan]
- Overall charge pH 7.4 [1]: Positive
- IC50 [3, 12]: 460 ± 41 µM
- P-gp substrate [9]: substrates of P-gp
- Strongest basic pKa [8]: 9.2

SMILES: COc1ccc2c3c1O[C@H]1C(=O)CC[C@@]4(O)[C@@H](C2)N(C)CC[C@]314 [Oxycodone]
- Overall charge pH 7.4 [1]: Positive
- Jmax [2]: 5.3 ± 1.0 nmol·min^−1·mg protein^−1
- Km ([2]; listed as oxycodone): ~130 µM
- Km [2]: 130 ± 57 µM
- IC50 [3, 11]: 225 ± 57 µM
- IC50 ([3]; read-out: Apparent IC50 on [^3H]-pyrilamine uptake, [^3H]-pyrilamine 1 µCi/mL, 48 nM, listed as oxycodone): ~225 µM
- Time-dependent uptake in presence of 1000 µM pyrilamine ([4]; oxycodone 500 µM): reduced
- Cellular uptake after intracellular alkalization [5]: reduced cellular uptake
- Cellular uptake at extracellular acidification [5]: reduced cellular uptake
- Cellular uptake at extracellular alkalization [5]: increased cellular uptake
- Cellular uptake after intracellular acidification [5]: increased cellular uptake
- Strongest basic pKa [8]: 8.8
- cLogD pH 7.4 ([8]; extracted from ChemSpider): 0.5

— paper PMC11071266, “The putative proton-coupled organic cation antiporter is involved in uptake of triptans into human brain capillary endothelial cells” (Fluids and Barriers of the CNS, 2024)
